Data taken from US20230364012A1, “STABLE OPHTHALMIC COMPOSITION OF LOTEPREDNOL” (MANKIND PHARMA LTD., priority 2022, published 2023).

Assay: Particle size of the compositions, tested initially, after 15 days and one month (stability studies)
Type: physicochemical
Settings: Initial
Experimental: The particle size of the compositions of the invention were tested initially, after 15 days and one month. The compositions of the invention were then observed and tested for particle aggregation, settling, and flocculation on long term storage. The observations at one month, three months, 6 months, 9 months are as follows: […]

CCOC(=O)O[C@]1(C(=O)OCCl)CC[C@H]2[C@@H]3CCC4=CC(=O)C=C[C@]4(C)[C@H]3[C@@H](O)C[C@@]21C [API, Loteprednol etabonate]
Particle size D10: 1 µm
Particle size D50: 3.3 µm
Particle size D90: 9.1 µm
